Results: PMC12414870, “First‐in‐class inhibitors of SbnA reduce siderophore production in Staphylococcus aureus” (The Febs Journal, 2025)

Assays:
[1] = target: T1, SbnA (Staphylococcus aureus, UniProt A6QDA0); experiment: PNP-coupled continuous assay (MESG, […] nm); type: biochemical
T1 construct: synthetic codon-optimised gene in pSH21p::TrxA, His-Trx tag with TEV site, tag cleaved and removed; expressed in E. coli BL21 ArcticExpress (DE3)

[2] = target: T1, SbnA; experiment: PNP-coupled continuous assay (MESG, […] nm), global fit; type: biochemical
[3] = target: T1, SbnA; experiment: PNP-coupled continuous assay, global fit to ping-pong with substrate inhibition; type: biochemical; conditions: substrate inhibition (unproductive binding to internal aldimine); 0.035-0.720 mM L-OPS; 50 mM HEPES pH 7.8, 1 mM TCEP, 25 °C
[4] = system: N[C@@H](COP(=O)(O)O)C(=O)O; experiment: purified protein; conditions: co-substrate L-Glu 0.1-150 mM, 50 mM HEPES pH 7.8, 1 mM TCEP, 25 °C

T1 sequence (A6QDA0 whole entry): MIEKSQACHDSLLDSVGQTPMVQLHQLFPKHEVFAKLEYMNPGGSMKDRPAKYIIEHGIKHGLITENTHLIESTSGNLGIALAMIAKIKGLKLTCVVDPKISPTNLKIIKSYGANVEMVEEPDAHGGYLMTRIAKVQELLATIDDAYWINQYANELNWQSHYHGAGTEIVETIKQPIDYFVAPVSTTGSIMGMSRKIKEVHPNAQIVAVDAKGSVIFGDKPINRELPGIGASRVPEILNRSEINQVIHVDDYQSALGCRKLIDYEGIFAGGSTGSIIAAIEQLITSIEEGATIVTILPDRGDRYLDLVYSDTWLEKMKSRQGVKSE

Row | Compound | IC50 [1] [µM] | Ki [2] [µM] | other results
1 | O=C(O)CC(C(=O)O)c1ccccc1 (racemic) [compound 2, 2-phenylsuccinic acid] | 366 ± 37 | 124 ± 13 | –
2 | N[C@@H](CCC(=O)O)C(=O)O [L-glutamate] | – | – | Ki [3]: 25750 ± 7930 µM
3 | O=C(O)CC(O)(CC(=O)O)C(=O)O [citrate] | 800 ± 100 | 900 ± 200 | –
4 | O=C(O)/C=C(\C(=O)O)c1ccccc1 [compound 3, Z-2-phenylbut-2-enedioic acid] | 37 ± 3 | 16 ± 2 | –
5 | O=C(O)CCC(=O)C(=O)O [α-ketoglutarate] | 2600 ± 200 | – | –
6 | SbnA (Staphylococcus aureus subsp. aureus str. Newman) | – | – | Km [4]: 27 ± 6 µM; kcat/Km [4]: 170000 M⁻¹ s⁻¹
